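All cell lines were grown in 96-well plates and treated with compound for 48 hours. At the GI50, growth is halved. TGI denotes the concentration required for complete inhibition of growth.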

The values that follow come from PubChem BioAssay (NCI).

Experiment in all cases: inhibition of tumour cell growth, NCI panel, 48 h
Experiment [1] concerns SR leukemia.
The subject of experiment [2] is NCI-H522 lung.
Experiment [3] concerns LOX IMVI melanoma.
Experiment [4] deals with T-47D breast.
For experiment [5], the system named is MDA-MB-435.
The subject of experiment [6] is MALME-3M melanoma.
Experiment [7] deals with KM12 colon.
Experiment [8] concerns 786-0 renal.
For experiment [9], the system named is HS 578T breast.
Experiment [10] has as its system MOLT-4 leukemia.

With `O=[N+]([O-])c1cccc(-c2nc3sccn3c2-c2ccnc(NCCCNS(=O)(=O)c3cccc(F)c3)n2)c1`, the GI50 in experiment [1] was 3.1 µM; in experiment [2], 2.02 µM; in experiment [3] it was 2.58 µM; in experiment [4] it was 0.391 µM; in [5], 2.98 µM; in experiment [6] it was 2.14 µM. Further, the GI50 in experiment [7] is 2.39 µM; in [8], 7.97 µM; in experiment [9], 4.73 µM. Also, the TGI in [1] is greater than 100 µM; in experiment [2], 7.97 µM; in experiment [3] it was 11 µM; in [4], 4.64 µM; in experiment [5], 11.6 µM; in experiment [6], 7.06 µM. Also, the TGI stood at 8.14 µM in [7], 45.6 µM in experiment [8] and 47.3 µM in [9].

`O=C1c2ccccc2-c2c1c1ccc([N+](=O)[O-])cc1c(=O)n2CCCBr`: the GI50 in experiment [1] is 0.2 µM; in [2] it was 96.8 µM; in [3] it was 4.18 µM; in experiment [4], greater than 100 µM; in experiment [5], greater than 100 µM; in experiment [6] it was greater than 100 µM. For the same molecule, the GI50 in experiment [7] and in [8] was greater than 100 µM each time. Also, the TGI in experiment [1], in [2], in experiment [3], in experiment [4], in experiment [5] and in experiment [6] was greater than 100 µM in each case. For the same molecule, the TGI in [7] and in experiment [8] was greater than 100 µM throughout.

As to `CN(C)c1ccc2c(c1)Sc1cc(N(C)C)ccc1N2C(=O)c1ccccc1`, the GI50 in experiment [1] is 14.6 µM; in experiment [3] it was 24.2 µM; in experiment [4] it was 35.2 µM; in [5], 65 µM; in experiment [6], 21.4 µM; in experiment [7], 31.6 µM. The GI50 in [10] is 38.1 µM; in experiment [8], 32.8 µM; in [9], 10.8 µM. The TGI in experiment [1] is greater than 100 µM; in [3] it was greater than 100 µM; in [4] it was greater than 100 µM; in experiment [5], greater than 100 µM; in experiment [6], 77.1 µM; in [7], greater than 100 µM. Also, the TGI in experiment [10] was greater than 100 µM; in [8], greater than 100 µM; in [9] it was 57.4 µM.

As to `Cc1ccc(C2=NOC3=c4ccccc4=CSC3=C2c2ccc([N+](=O)[O-])cc2)cc1`, the GI50 in experiment [2] is 12.5 µM; in experiment [3], 16.2 µM; in [4] it was 5.22 µM; in experiment [5], 57.9 µM; in experiment [6], 17.7 µM; in [7], 61.1 µM. Further, the GI50 in experiment [10] was greater than 100 µM; in experiment [8], 0.58 µM; in experiment [9], 22.9 µM. Besides, the TGI in experiment [2] was 68.5 µM; in experiment [3], 53.8 µM; in experiment [4], 47.1 µM; in experiment [5] it was greater than 100 µM; in experiment [6], 89.5 µM; in [7] it was greater than 100 µM. Besides, the TGI is greater than 100 µM in experiment [10], 72.5 µM in experiment [8] and 94.9 µM in experiment [9].

Regarding `CC1=C(CCC(C)N(C)Cc2ccc(OCCCN3CCCC3)cc2)C(C)(C)CCC1` (stereo not drawn), the GI50 in experiment [1] was 0.744 µM; in [2], 2.33 µM; in [3] it was 1.66 µM; in [4], 1.72 µM; in experiment [5] it was 1.43 µM; in experiment [6] it was 1.67 µM. The results for the GI50 in experiment [7], in experiment [8] and in experiment [9] were 4.6 µM, 2.59 µM and 2.53 µM, respectively. Moreover, the TGI in experiment [1] was determined as 3.89 µM; in [2] it was 4.99 µM; in experiment [3], 3.18 µM; in experiment [4] it was 4.97 µM; in experiment [5], 2.85 µM; in experiment [6], 3.23 µM. Moreover, the TGI in [7] was 17.7 µM; in [8], 11.7 µM; in experiment [9], 9.73 µM.

With `N#Cc1c(N/N=C/c2c(Cl)cccc2Cl)nc(N)nc1N1CCOCC1`, the GI50 is 1.1 µM in experiment [1]; 4.35 µM in [2]; 8.97 µM in experiment [3]; 48 µM in experiment [4]; 3.26 µM in experiment [5]; 4.06 µM in experiment [7]. Further, the figures for the GI50 in experiment [10], in [8] and in [9] were 4.08 µM, 5.82 µM and 13.3 µM, respectively. Further, the TGI was 3.18 µM in [1]; 27.3 µM in experiment [2]; greater than 100 µM in [3]; greater than 100 µM in experiment [4]; 36 µM in [5]; 71.7 µM in experiment [7]. The TGI in experiment [10] is 40.6 µM; in experiment [8], greater than 100 µM; in experiment [9], 82.1 µM.

On to `COc1cc2nc(N3CCCC3)nc(NCC3CCCCC3)c2cc1OC`, for which the GI50 in experiment [1] was 0.254 µM; in [2], 1.56 µM; in experiment [3], 0.281 µM; in experiment [4], 1.45 µM; in [5] it was 1.11 µM; in experiment [6] it was 1.24 µM. Besides, the figures for the GI50 in experiment [7], in experiment [8] and in experiment [9] were 1.63 µM, 1.47 µM and 1.79 µM, respectively. Besides, the TGI in [1] amounted to 1.08 µM; in experiment [2], 3.29 µM; in experiment [3] it was 0.793 µM; in experiment [4] it was 3.51 µM; in experiment [5] it was 2.33 µM; in [6] it was 2.55 µM. Also, the TGI in experiment [7] worked out at 3.13 µM; in [8] it was 3.11 µM; in experiment [9] it was 3.71 µM.

As for `COc1ccc(C(OCC2OC(n3ccc(NC(=O)c4ccccc4)nc3=O)C(O)C2O)(c2ccccc2)c2ccccc2)cc1` (stereo not drawn), the TGI came out at 4.96 µM in experiment [1]; 5.61 µM in experiment [2]; 9.42 µM in [4]; 5.73 µM in [5]; 3.73 µM in experiment [6]; 38.5 µM in experiment [7]. The TGI in experiment [10] amounted to 4.17 µM; in experiment [8], 3.69 µM; in experiment [9], 4.86 µM.
